Experiments:
[1] = system: capillary vessel hyperplasia (experimental diabetic retinopathy); assay: therapeutic effect on experimental diabetic retinopathy; assay type: in vivo, rat (wister); details: for improving effect of pathologic state / beneficial effect on the pathologic state: I.P.; for improving effect of pathologic state: ten consecutive days; for beneficial effect on the pathologic state: ten days
Method: First, streptozocin in an amount of 65 mg/kg was administered to a six-week aged male wister rat from its vena caudalis, and about three months thereafter, 3,3'-iminodipropionitrile was administered. Rats in which abnormal growth of capillary vessel (hyperplasia retinitis) was observed were screened out and were subjected to a medicament administration test with ten rats as a group.
For comparison purposes, the effect of the medroxyprogesterone acetate (MPA), the conventional substance for inhibiting the neovascularization, was also tested by the same procedure as described above.

[2] = system: neovascularization of chorio-allantoic membranes; assay: neovascularization inhibition on chorio-allantoic membranes of fertilized fowl eggs; assay type: in vivo; details: for neovascularization inhibitory rate: two days; for neovascularization inhibitory effect (in words): commercially available
[3] = system: neovascularization in the cornea; assay: inhibition of neovascularization in the cornea of rabbits (slow-releasing pellet); assay type: in vivo, rabbit; details: 100 μg and 1.0 mg in pellet with 10 μg prostaglandin E1 or 200 μg cuprous chloride; seven days
[4] = toxicity in rats, parenteral administration; assay type: in vivo, rat; details: 500 to 3,500 mg/kg in 50% dimethylsulfoxide, I.V. or I.P.

## CC(=O)O[C@]1(C(C)=O)CC[C@H]2[C@@H]3C[C@H](C)C4=CC(=O)CC[C@]4(C)[C@H]3CC[C@@]21C [MPA, medroxyprogesterone acetate, reference compound]
[1]; Table 3, 1.5 mg/kg
  improving effect of pathologic state: -
[1]; Table 3, 3.0 mg/kg
  improving effect of pathologic state: + (improving effects of pathologic state of 10 to 30%)
[1]; Table 3, 4.5 mg/kg
  improving effect of pathologic state: + (improving effects of pathologic state of 10 to 30%)
[1]; Table 3, 6.0 mg/kg
  improving effect of pathologic state: ++ (30 to 70%)

## Nc1ncnc2c1ncn2[C@@H]1O[C@H](COP(=O)(O)OS(=O)(=O)O)[C@@H](OP(=O)(O)O)[C@H]1O [PAPS, 3-phosphoadenosine 5'-phosphosulfate]
[2]; Table 1, commercially available (Sigma), dose 1 μg
  neovascularization inhibitory rate: + (10 to 80% (+))
[2]; Table 1, commercially available (Sigma), dose 10 μg
  neovascularization inhibitory rate: ++ (80 to 70% (++))
[2]; Table 1, commercially available (Sigma), dose 100 μg
  neovascularization inhibitory rate: ++ (80 to 70% (++))
[2]; Table 1, commercially available (Sigma), dose 1,000 μg
  neovascularization inhibitory rate: +++ (70 to 100% (+++))
[2]; Table 2, enzyme-synthesized, dose 1 μg
  neovascularization inhibitory rate: + (10 to 80% (+))
[2]; Table 2, enzyme-synthesized, dose 10 μg
  neovascularization inhibitory rate: ++ (80 to 70% (++))
[2]; Table 2, enzyme-synthesized, dose 100 μg
  neovascularization inhibitory rate: ++ (80 to 70% (++))
[2]; Table 2, enzyme-synthesized, dose 1,000 μg
  neovascularization inhibitory rate: +++ (70 to 100% (+++))
[2]; dose 10 μg
  neovascularization inhibitory effect (in words): slight effect
[2]; dose at least 100 μg
  neovascularization inhibitory effect (in words): perfect neovascularization inhibitory effect
[2]; enzyme-synthesized, dose range 1 to 1,000 μg
  neovascularization inhibition (in words): inhibited neovascularization in a dose-dependent manner
[3]
  inhibition of neovascularization caused by prostaglandin E1 or cuprous chloride: perfectly inhibit the neovascularization
[1]; 1.5 mg/kg administration group
  beneficial effect on the pathologic state: 10%
[1]; 3.0 mg/kg group
  beneficial effect on the pathologic state: 70%
[1]; 6.0 mg/kg group
  beneficial effect on the pathologic state: at least 80%
[1]; Table 3, 1.5 mg/kg
  improving effect of pathologic state: + (improving effects of pathologic state of 10 to 30%)
[1]; Table 3, 3.0 mg/kg
  improving effect of pathologic state: ++ (30 to 70%)
[1]; Table 3, 4.5 mg/kg
  improving effect of pathologic state: +++ (70 to 100%)
[1]; Table 3, 6.0 mg/kg
  improving effect of pathologic state: +++ (70 to 100%)
[1]; any of the doses (1.5-6.0 mg/kg), compared with MPA
  therapeutic effect as compared with MPA (in words): excellent therapeutic effect
[4]
  intoxication or lethality: no cases of intoxication or lethality

— patent US5401725A, “Neovascularization inhibition by adenosine-5'-phosphosulfates” (Unitika Ltd., priority 1990, dated 1995)
